Patent publication US20230114264A1, “ACTIVATION OF LYTIC GENES IN CANCER CELLS” (priority 2020, published 2023)

Legend:
BZLF1 = test: EBV reactivation by BZLF1 gRNA transfection (Casilio) in C666-1 cells stably expressing HA-dCas9-EGFP and 3×FLAG-PUFa-p65HSF1; assay type: cell-based, Epstein-Barr virus (EBV)
Protocol: SNU-719 and C666-1 cells stably expressing HA-dCas9-EGFP and 3×FLAG-PUFa-p65HSF1 were cultivated in RPMI-1640 (Sigma) with 10% fetal bovine serum (FBS) (Gibco) and 1% GlutaMAX (Gibco) and cultured in 37° C. incubator with 5% CO2. EBV reactivation experiments were conducted with cells seeded into 6-well plates at 2×10^6 cells per well the day before transfection. 2 micrograms (μg) of control gRNA or individual BZLF1 gRNA (A3) (SEQ ID NO: 8), gRNA (A4) (SEQ ID NO: 9), gRNA (A5) (SEQ ID NO: 10), or gRNA (A6) (SEQ ID NO: 11) gRNAs were transfected into cells with Lipofectamine 2000 (Invitrogen). After transfection, cells were grown for 48 hours and harvested for protein extraction or FACS (FIGS. 4, 5, 7A-7E).
FACS Analysis. Cells were harvested with trypsin and fixed for 15 minutes (mins) with 4% paraformaldehyde. The cells were then centrifuged at 2000×g for 5 mins and resuspended in 3% BSA for 30 mins. The resuspend cells were centrifuged again at 2000×g for 5 mins. Samples were stained with Alexa-647 conjugated anti-BZLF1 monoclonal antibody for 2 hours. Samples were analyzed on a FACSCalibur flow cytometer using CellQuest Pro software (BD Bioscience). Thousands of events were collected in each run.
Quantitative RT-PCR Analysis. Cells were harvested with trypsin, centrifuged at top speed for 1 min, and RNA was extracted using TRIzol reagent (Invitrogen). 2 μg of total RNA was used to produce a cDNA library using Superscript III Reverse Transcriptase. SYBR Green gene expression assays (Roche) were performed using the GAPDH primers as endogenous control and primers targeting the EBV lytic genes BZLF1, BGLF4, BLRF2 were used to assess EBV reactivation. Power SYBR Green master mix was used for performing real-time quantitative PCR (RT-qPCR). Each reaction was performed with 2 μL of 1:3 diluted cDNA. The RT-qPCR samples were analyzed with a Roche LC480 PCR instrument. Gene expression levels were calculated by “delta Ct” algorithm and normalized to control samples.

EBV lytic genes = test: EBV lytic gene induction in DOX-induced SNU-719 dCas9-Tet-on-PUFa-p65HSF1 gRNA cells; assay type: cell-based, Epstein-Barr virus (EBV)
From the text: SNU-719 and C666-1 cancer cells stably expressing HA-dCas9-EGFP and BZLF1 gRNA (A5) were modified to inducibly express 3×FLAG-PUFa-p65HSF1 using a Tetracycline response element (Tet-On). […] This reactivation of EBV slows the growth rate of cells by greater than 4 fold compared with cells treated with ganciclovir (GCV) alone, a current standard treatment for EBV infection (FIGS. 3B, 6A, 8H-8I). Further, treatment with BZLF1 gRNA (A5) decreases C666-1 cell viability by 50-70% relative to control (FIG. 6B).
Producing Tet-on PUFa-p65HSF1 cell line. SNU-719 or C666-1 cells stably expressing HA-dCas9-EGFP were seeded into a 60 mm culture dish at 70% density. The cells were transfected with 1 μg hyPBase (transposase) and 2 μg dox-inducible PUFa-p65HSF1 in a piggyBac vector plasmid through Lipofectamine 2000 reagent (Invitrogen). At 6 hours post-transfection, cell culture medium was exchanged. At 48 hours post-transfection, cells were selected with hygromycin antibiotics.
Producing Tet-on PUFa-p65HSF1 and BZLF1 gRNA (3) cell line. The day prior to transfection, HEK-293FT cells were seeded into a 10 cm culture dish at 70% density. […]. At 6 hours post-transfection, medium was exchanged for fresh. At 48 hours post-transfection, 5 mL of medium containing the lentivirus was collected and centrifuged for 10 minutes at 2,000 rpm to remove cellular debris. The supernatant was filtered through a 0.45-micron filter (Millipore), and the lentivirus was collected. SNU-719 dCas9-Tet-on-PUFa-p65HSF1 or C666-1 dCas9-Tet-on-PUFa-p65HSF1 cells were seeded into a 10 cm culture dish at 60% density per dish, transduced with 7 mL of the BZLF1 gRNA (A5) lentivirus in culture medium supplemented with 8 μg/mL polybrene for 48 hours, and subsequently selected with Puromycin antibiotics on the third day post-transduction.
RNA in-situ hybridization ISH (RNAscope®). Doxycycline (DOX) treated or untreated SNU-719 HA-dCas9-EGFP-Tet-on-PUFa-p65HSF1-BZLF1 gRNA (A5) cells or C666-1-HA-dCas9-Tet-on-PUFa-p65HSF1-BZLF1 gRNA (A5) cells were incubated for 48 hours. […]

With “BZLF1 gRNA (A5): BZLF1 gRNA spacer sequence SEQ ID NO: 10, GAAACTATGCATGAGCCAC (chemistry not given here)” the “EBV reactivation, induction of BZLF1 (Zta) protein expression” value (BZLF1; C666-1, 2 μg gRNA, 48 hours after transfection, protein extraction or FACS) was “reactivate EBV expression at detectable levels”, the “BZLF1 (ZTa) protein expression by immunostaining” value (BZLF1; C666-1, FIG. 7D) was “activated BZLF1 (ZTa) protein expression” and the “expression of the downstream EBV genes BGLF4 and BLRF2” value (BZLF1; RT-qPCR, FIG. 7F, cell line not stated) was “induces the expression of the downstream EBV genes BGLF4 and BLRF2”. For the same substance, the “expression of other EBV lytic genes including BRLF1 (Rta), BGLF4 (PK), BFRF3 (VCAp18), BMRF1, BdRF1 and BLLF1” value (EBV lytic genes; 1 μg/mL DOX) was “induces the expression of other EBV lytic genes”, the “BZLF1 (Zta) reactivation” value (EBV lytic genes; 1 μg/mL Doxycycline (DOX), Example 10) was “reactivated BZLF1 (Zta)” and the “induction of the BZLF1, BGLF4, BMRF1, and BFRF3 (VCAp18) EBV lytic genes” value (EBV lytic genes; 3×FLAG-PUFa-p65HSF1 induced with 1 μg/mL Doxycycline) was “reactivated EBV”.
